Test results reported in patent publication US12310975B2, “Modulators of BCL6 proteolysis and associated methods of use” (Arvinas Operations, Inc., priority 2019, dated 2025).

Biological target: BCL6 (Homo sapiens (Human), UniProt P41182)
Test: Immunofluorescence high content imaging of BCL6 degradation in T47D cells
Format: cell-based
Conditions: T47D cells
Summary of the method: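 Seed T47D in RPMI1640-10% FBS to reach ~70-90% confluence at endpoint; add degrader next day (11-point 3-fold series, top 0.1 or 1 μM final) for 3 days. Then fix, permeabilize, stain BCL6 with nuclear Hoechst, and image.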

Compound	Dmax [%]	IC50 [nM]
CNC(=O)COc1cc2cc(Nc3nc(N4CCC(OC5CC6(C5)CN(c5cccc7c5C(=O)N(C5CCC(=O)NC5=O)C7=O)C6)CC4)ncc3Cl)ccc2n(C(C)C)c1=O (stereo not drawn) [compound 363, 2-{[6-({5-chloro-2-[4-({2-[2-(2,6-dioxopiperidin-3-yl)-1,3-dioxo-2,3-dihydro-1H-isoindol-4-yl]-2-azaspiro[3.3]heptan-6-yl}oxy)piperidin-1-yl]pyrimidin-4-yl}amino)-2-oxo-1-(propan-2-yl)-1,2-dihydroquinolin-3-yl]oxy}-N-methylacetamide]	≥ 70	< 10
CCn1c(=O)c(OCC(=O)NC)cc2cc(Nc3nc(N4CCC(CN5CCC(c6ccc7c(c6)C(=O)N(C6CCC(=O)NC6=O)C7=O)CC5)CC4)ncc3Cl)ccc21 (stereo not drawn) [compound 364, 2-{[6-({5-chloro-2-[4-({4-[2-(2,6-dioxopiperidin-3-yl)-1,3-dioxo-2,3-dihydro-1H-isoindol-5-yl]piperidin-1-yl}methyl)piperidin-1-yl]pyrimidin-4-yl}amino)-1-ethyl-2-oxo-1,2-dihydroquinolin-3-yl]oxy}-N-methylacetamide]	≥ 70	10 to 50
CNC(=O)COc1cc2cc(Nc3nc(N4CCC(CN5CCC(c6ccc7c(c6)C(=O)N(C6CCC(=O)NC6=O)C7=O)CC5)CC4)ncc3Cl)ccc2n(C(C)C)c1=O (stereo not drawn) [compound 365, 2-{[6-({5-chloro-2-[4-({4-[2-(2,6-dioxopiperidin-3-yl)-1,3-dioxo-2,3-dihydro-1H-isoindol-5-yl]piperidin-1-yl}methyl)piperidin-1-yl]pyrimidin-4-yl}amino)-2-oxo-1-(propan-2-yl)-1,2-dihydroquinolin-3-yl]oxy}-N-methylacetamide]	≥ 70	< 10
CNC(=O)COc1cc2cc(Nc3nc(N4CCC(F)(CN5CCN(c6ccc(C(=O)NC7CCC(=O)NC7=O)c(OC)c6)CC5)CC4)ncc3Cl)ccc2n(C)c1=O (stereo not drawn) [compound 366, 4-[4-({1-[5-chloro-4-({1-methyl-3-[(methylcarbamoyl)methoxy]-2-oxo-1,2-dihydroquinolin-6-yl}amino)pyrimidin-2-yl]-4-fluoropiperidin-4-yl}methyl)piperazin-1-yl]-N-(2,6-dioxopiperidin-3-yl)-2-methoxybenzamide]	50 to 70	< 10
CNC(=O)COc1cc2cc(Nc3nc(N4CCN(CC5(F)CCN(c6ccc(C(=O)NC7CCC(=O)NC7=O)c(OC)c6)CC5)CC4)ncc3Cl)ccc2n(C)c1=O (stereo not drawn) [compound 367, 4-[4-({4-[5-chloro-4-({1-methyl-3-[(methylcarbamoyl)methoxy]-2-oxo-1,2-dihydroquinolin-6-yl}amino)pyrimidin-2-yl]piperazin-1-yl}methyl)-4-fluoropiperidin-1-yl]-N-(2,6-dioxopiperidin-3-yl)-2-methoxybenzamide]	50 to 70	< 10
CNC(=O)COc1cc2cc(Nc3nc(N4CCN(CC5CCN(c6cc(OC)c(C(=O)NC7CCC(=O)NC7=O)c(OC)c6)CC5)CC4)ncc3Cl)ccc2n(C)c1=O (stereo not drawn) [compound 368, 4-[4-({4-[5-chloro-4-({1-methyl-3-[(methylcarbamoyl)methoxy]-2-oxo-1,2-dihydroquinolin-6-yl}amino)pyrimidin-2-yl]piperazin-1-yl}methyl)piperidin-1-yl]-N-(2,6-dioxopiperidin-3-yl)-2,6-dimethoxybenzamide]	< 50	10 to 50
CCn1c(=O)c(OCC(=O)NC)cc2cc(Nc3nc(N4CCN([C@H]5C[C@H](COc6ccc7c(c6)C(=O)N(C6CCC(=O)NC6=O)C7=O)N(C)C5)CC4)ncc3Cl)ccc21 (stereo partly drawn) [compound 371, 2-({6-[(5-chloro-2-{4-[(3S,5R)-5-({[2-(2,6-dioxopiperidin-3-yl)-1,3-dioxo-2,3-dihydro-1H-isoindol-5-yl]oxy}methyl)-1-methylpyrrolidin-3-yl]piperazin-1-yl}pyrimidin-4-yl)amino]-1-ethyl-2-oxo-1,2-dihydroquinolin-3-yl}oxy)-N-methylacetamide]	50 to 70	≥ 100
CNC(=O)COc1cc2cc(Nc3nc(N4CCC(CN5CCC6(CC5)CN(c5ccc7c(c5)C(=O)N(C5CCC(=O)NC5=O)C7=O)C6)CC4)ncc3Cl)ccc2n(C(C)C)c1=O (stereo not drawn) [compound 372, 2-{[6-({5-chloro-2-[4-({2-[2-(2,6-dioxopiperidin-3-yl)-1,3-dioxo-2,3-dihydro-1H-isoindol-5-yl]-2,7-diazaspiro[3.5]nonan-7-yl}methyl)piperidin-1-yl]pyrimidin-4-yl}amino)-2-oxo-1-(propan-2-yl)-1,2-dihydroquinolin-3-yl]oxy}-N-methylacetamide]	50 to 70	< 10
CNC(=O)COc1cc2cc(Nc3nc(NCCc4ccc(C(=O)NC5CCC(=O)NC5=O)nc4)ncc3Cl)ccc2n(C(C)C)c1=O (stereo not drawn) [compound 373, 5-(2-{[5-chloro-4-({3-[(methylcarbamoyl)methoxy]-2-oxo-1-(propan-2-yl)-1,2-dihydroquinolin-6-yl}amino)pyrimidin-2-yl]amino}ethyl)-N-(2,6-dioxopiperidin-3-yl)pyridine-2-carboxamide]	–	≥ 100
CNC(=O)COc1cc2cc(Nc3nc(N4CCC(CN5CC6(CCN(c7ccc8c(c7)C(=O)N(C7CCC(=O)NC7=O)C8=O)CC6)C5)CC4)ncc3Cl)ccc2n(C(C)C)c1=O (stereo not drawn) [compound 374, 2-{[6-({5-chloro-2-[4-({7-[2-(2,6-dioxopiperidin-3-yl)-1,3-dioxo-2,3-dihydro-1H-isoindol-5-yl]-2,7-diazaspiro[3.5]nonan-2-yl}methyl)piperidin-1-yl]pyrimidin-4-yl}amino)-2-oxo-1-(propan-2-yl)-1,2-dihydroquinolin-3-yl]oxy}-N-methylacetamide]	≥ 70	< 10
CCn1c(=O)c(OCC(=O)NC)cc2cc(Nc3nc(N4CCN(CC5CCN(c6ccc(C(=O)NC7CCC(=O)NC7=O)c(OC)c6)CC5)CC4)ncc3Cl)ccc21 (stereo not drawn) [compound 375, 4-[4-({4-[5-chloro-4-({1-ethyl-3-[(methylcarbamoyl)methoxy]-2-oxo-1,2-dihydroquinolin-6-yl}amino)pyrimidin-2-yl]piperazin-1-yl}methyl)piperidin-1-yl]-N-(2,6-dioxopiperidin-3-yl)-2-methoxybenzamide]	50 to 70	< 10

Other lines, results leading:

Dmax [%]	IC50 [nM]	Compound
50 to 70	< 10	CNC(=O)COc1cc2cc(Nc3nc(N4CCN(CC5CCN(c6ccc(C(=O)NC7CCC(=O)NC7=O)c(OC)c6)CC5)CC4)ncc3Cl)ccc2n(C(C)C)c1=O (stereo not drawn) [compound 376, 4-[4-({4-[5-chloro-4-({3-[(methylcarbamoyl)methoxy]-2-oxo-1-(propan-2-yl)-1,2-dihydroquinolin-6-yl}amino)pyrimidin-2-yl]piperazin-1-yl}methyl)piperidin-1-yl]-N-(2,6-dioxopiperidin-3-yl)-2-methoxybenzamide]
–	≥ 100	CNC(=O)COc1cc2cc(Nc3nc(N4CCN(CC5CCN(c6ccc(C(=O)NC7CCC(=O)NC7=O)[n+]([O-])c6)CC5)CC4)ncc3Cl)ccc2n(C)c1=O (stereo not drawn) [compound 377, 5-[4-({4-[5-chloro-4-({1-methyl-3-[(methylcarbamoyl)methoxy]-2-oxo-1,2-dihydroquinolin-6-yl}amino)pyrimidin-2-yl]piperazin-1-yl}methyl)piperidin-1-yl]-2-[(2,6-dioxopiperidin-3-yl)carbamoyl]pyridin-1-ium-1-olate]
–	≥ 100	CNC(=O)COc1cc2cc(Nc3nc(N4CCO[C@H](CCOc5ccc6c(c5)C(=O)N(C5CCC(=O)NC5=O)C6=O)C4)ncc3Cl)ccc2n(C(C)C)c1=O (stereo partly drawn) [compound 379, 2-{[6-({5-chloro-2-[(2R)-2-(2-{[2-(2,6-dioxopiperidin-3-yl)-1,3-dioxo-2,3-dihydro-1H-isoindol-5-yl]oxy}ethyl)morpholin-4-yl]pyrimidin-4-yl}amino)-2-oxo-1-(propan-2-yl)-1,2-dihydroquinolin-3-yl]oxy}-N-methylacetamide]
< 50	10 to 50	CNC(=O)COc1cc2cc(Nc3nc(N4CCN(CC5CCCN5c5ccc6c(c5)C(=O)N(C5CCC(=O)NC5=O)C6=O)CC4)ncc3Cl)ccc2n(C(C)C)c1=O (stereo not drawn) [compound 380, 2-{[6-({5-chloro-2-[4-({1-[2-(2,6-dioxopiperidin-3-yl)-1,3-dioxo-2,3-dihydro-1H-isoindol-5-yl]pyrrolidin-2-yl}methyl)piperazin-1-yl]pyrimidin-4-yl}amino)-2-oxo-1-(propan-2-yl)-1,2-dihydroquinolin-3-yl]oxy}-N-methylacetamide]
50 to 70	50 to 100	CNC(=O)COc1cc2cc(Nc3nc(N4C[C@@H](COc5ccc6c(c5)C(=O)N(C5CCC(=O)NC5=O)C6=O)O[C@H](C)C4)ncc3Cl)ccc2n(C(C)C)c1=O (stereo partly drawn) [compound 382, 2-{[6-({5-chloro-2-[(2S,6R)-2-({[2-(2,6-dioxopiperidin-3-yl)-1,3-dioxo-2,3-dihydro-1H-isoindol-5-yl]oxy}methyl)-6-methylmorpholin-4-yl]pyrimidin-4-yl}amino)-2-oxo-1-(propan-2-yl)-1,2-dihydroquinolin-3-yl]oxy}-N-methylacetamide]
50 to 70	10 to 50	CNC(=O)COc1cc2cc(Nc3nc(N4C[C@@H](COc5ccc6c(c5)C(=O)N(C5CCC(=O)NC5=O)C6=O)O[C@@H](C)C4)ncc3Cl)ccc2n(C(C)C)c1=O (stereo partly drawn) [compound 383, 2-{[6-({5-chloro-2-[(25,6S)-2-({[2-(2,6-dioxopiperidin-3-yl)-1,3-dioxo-2,3-dihydro-1H-isoindol-5-yl]oxy}methyl)-6-methylmorpholin-4-yl]pyrimidin-4-yl}amino)-2-oxo-1-(propan-2-yl)-1,2-dihydroquinolin-3-yl]oxy}-N-methylacetamide]
≥ 70	< 10	CNC(=O)COc1cc2cc(Nc3nc(N4CCC5(CC4)CN(CC4CCN(c6ccc7c(c6)C(=O)N(C6CCC(=O)NC6=O)C7=O)CC4)C5)ncc3Cl)ccc2n(C(C)C)c1=O (stereo not drawn) [compound 384]
